# From paper PMC7753357, “Population Pharmacokinetics and Model-Based Dosing Optimization of Teicoplanin in Pediatric Patients” (Frontiers in Pharmacology, 2020)
# “And” between values parts separate entries of the source, which are not always exact repeats. Identical values can stand only once. Like-named read-outs stand apart in the source and are kept apart here.
# Tests used:
# [1] = ref Svetitsky et al., 2009; cited from earlier work
# Experimental: There are large differences in the optimal dosage regimens provided by the two methods (Table 3). Taken together, optimal dosage regimens based on the C min targets in our study are recommended, which are three loading doses of 10 mg/kg every 12 h, followed by a maintenance dose of 12 mg/kg/day for C min of > 10 mg/L and three loading doses of 13 mg/kg every 12 h, followed by a maintenance dose of 16 mg/kg/day for C min of > 15 mg/L. The reasons are as follows: 1) The maintenance dose based on the C min targets are higher than that based PK/PD targets. In other words, maintenance dose based on ...
# [2] = cited from earlier work
# Description: Teicoplanin is a glycopeptide antibiotic with activity against methicillin-resistant Staphylococcus aureus (MRSA) ([Traina and Bonati, 1984]). […] Teicoplanin trough concentration (C min) is closely associated with clinical efficacy. For the moderate (such as respiratory tract infections, urinary tract infections and skin and soft-tissue infections) and severe infection (such as sepsis, infective endocarditis, bone an ... || There are large differences in the optimal dosage regimens provided by the two methods (Table 3). Taken together, optimal dosage regimens based on the C min targets in our study are recommended, which are three loading doses of 10 mg/kg every 12 h, followed by a maintenance dose of 12 mg/kg/day for C min of > 10 mg/L and three loading doses of 13 mg/kg every 12 h, followed by a maintenance dose of 16 mg/kg/day for C min of > 15 mg/L. The reasons are as follows: 1) The maintenance dose based on the C min targets are higher than that based PK/PD targets. In other words, maintenance dose based on ...
# [3] = Nephrotoxicity and adverse events in patients; assay type: in vivo, human; details: all after the last sample was collected
# [4] = cited from earlier work; remark: listed apart in the source
# Description: Supplement table1.docx, table 1: TABLE S1 Pharmacokinetic Study of teicoplanin in pediatric patients. | column: Clearance (CL) , L/h; Volume of distribution (Vd) , L || Teicoplanin is a glycopeptide antibiotic with activity against methicillin-resistant Staphylococcus aureus (MRSA) ([Traina and Bonati, 1984]). […] Teicoplanin trough concentration (C min) is closely associated with clinical efficacy. […] Due to widespread systemic inflammation, patients may often have an ARC in PICU patients ([Van Der Heggen et al., 2019]), and increased volume ... || (+ 2 further places)
# albumin = details: ref Lukas et al., 2004; cited from earlier work
# Description: (§1) Teicoplanin is a glycopeptide antibiotic with activity against methicillin-resistant Staphylococcus aureus (MRSA) ([Traina and Bonati, 1984]). […] Teicoplanin trough concentration (C min) is closely associated with clinical efficacy. For the moderate (such as respiratory tract infections, urinary tract infections and skin and soft-tissue infections) and severe infection (such as sepsis, infective endocarditis, bone an ...
# [5] = ref Lukas et al., 2004; cited from earlier work
# Description: as §1
# [6] = Population pharmacokinetic analysis (NONMEM, one-compartment model) in hospitalized children; assay type: in vivo, human
# Description: This was a retrospective PK study performed in two hospitals in China according to the principles of the current Declaration of Helsinki and Good Clinical Practice (Hospital 1: the First Affiliated Hospital of Xi’an Jiaotong University; Hospital 2: the Affiliated Children Hospital of Xi’an Jiaotong University). The protocol was approved by the institutional review board of each study site (No.XJTU1AF2017LSK-28). All patients aged 1 month to 18 years old receiving teicoplanin (Targocid, Sanofi-Aventis) for proven or suspected MRSA infection were selected for the study over 33-month period (March 2017 and November 2019). Children were excluded if a complete teicoplanin dosing history or precise sampling time was not available. The demographic variables with potential impact on the PK of teicoplanin and details of teicoplanin administration (dose and infusion start and stop times) were extracted from medical records retrospectively by a trained research assistant. If serum creatinine (SCr) readings were unavailable around the teicoplanin dosing (±48 h), the closest available SCr reading would be imputed. Creatinine clearance (CLcr) was estimated by Cockcroft formula: CLcr = (140 – age (years)) ×weight (WT, kg) × 0.85 (if female)/0.818 × SCr (μmol/L), instead of Schwartz formula due to the lack of height data in most children ([Cockcroft and Gault, 1976]).
# (§2) Teicoplanin was administered at three loading doses of 10 mg/kg every 12 h, followed by 6–10 mg/kg/day. Types of blood samples included therapeutic drug monitoring (TDM) sample, and opportunistic sample. TDM was typically performed within 30 min preceding a dose at steady state. Samples were centrifuged for 10 min. Serum was separated and stored at −80°C until analysis. The laboratory staff were allowed to identify the opportunistic samples with the timings of blood taking documented and store them at −80°C after routine testing and pretreatment. Teicoplanin concentrations were determined with a validated high performance liquid chromatography method. The calibration curve ranged from 2.5 to 100 mg/L, and lower limit of […] (LLOQ) of this assay was 2.5 mg/L. Intra- and inter-day precision values were 3.5 and 6.2%, respectively ([Wang et al., 2015]). For the samples below the LLOQ, concentration values were recorded as LLOQ of 2.5 mg/L.
# Population pharmacokinetic (PPK) analysis was performed using NONMEM (version 7.2). A one-compartment PK model with first-order elimination (ADVAN1 TRANS2) was implemented. The concentration-time data for teicoplanin were modeled by first-order conditional estimation with interaction (FOCE-I). We evaluated inter-individual variability using an exponential error model. Residual variability was selected from additive, proportional, exponential, and combined additive and proportional error models according to acceptable standard errors, physiological plausibility of population clearance (CL) and distribution volume (Vd) estimates, improvement of the objective function value (OFV) and good visual representation of standard diagnostic plots. Demographic characteristics (age, gender, WT), renal functions (blood urea nitrogen, SCr, CLcr), biochemical data (total protein, albumin), status of disease (sepsis, endocarditis), and nephrotoxic medications received during teicoplanin therapy were investigated as potential variables on PK parameters. CLcr was calculated by the Cockcroft formula ([Cockcroft and Gault, 1976]). […]
# [7] = Serum teicoplanin concentrations (TDM and opportunistic samples, HPLC); assay type: in vivo, human; details: SD
# Experimental: as §2
# [8] = most recent study in Chinese children, ref Gao et al., 2020
substance,measurement,setting,value
Teicoplanin,Adverse events compared with vancomycin,[1],lower adverse event compared with vancomycin
same,Elimination half-life compared with vancomycin,"[2]; ref Kasai et al., 2018",longer elimination half-life than vancomycin
same,Linearity of PK,"[2]; ref Rowland, 1990",linear PK
same,CL in adults,"[2]; seven out of ten of the CL reported, ref Byrne et al., 2018, Cazaubon et al., 2017, Kasai et al., Lamont et al., 2005, Soy et al., 2006, Yamada et al., 2012, Yu et al., 1995",lower than 0.01 L/h/kg
same,Children who developed nephrotoxicity during hospitalization,[3],Nine
same,Mean C min,"[4]; 24 h after the first dose, ref Sanchez et al., 1999",4800 ng/mL
same,Mean C min,"[4]; 72 h after the first dose, ref Sanchez et al., 1999",5700 ng/mL
same,Mean C min,"[4]; 168 h after the first dose, ref Sanchez et al., 1999",5900 ng/mL
same,CL,"[4]; PICU Caucasians, ref Aarons et al., 1998, Lukas et al., 2004, Ramos-Martin et al., 2014, Reed et al., 1997, Sanchez et al., 1999, Terragna et al., 1988, Zhao et al., 2015",0.5 to 1.23 mL/min/kg
same,Volume of distribution (Vd),"[4]; children, n=39, England, FPIA, ref Ramos-Martin (2014)",4.138 L
same,Q,"[4]; children, n=136, China, population PK, ref Gao (2020)",0.23 L/h
same,Vd in other studies,"[4]; children, ref Supplementary Table S1",0.2 to 1.02 L/kg
same,CL estimate,[4]; [8],0.217 mL/min/kg
same,Vd,[4]; [8],1.85 L/kg
same,CL,"[4]; non-PICU Caucasians, ref Aarons et al., 1998, Lukas et al., 2004, Ramos-Martin et al., 2014, Reed et al., 1997, Sanchez et al., 1999, Terragna et al., 1988, Zhao et al., 2015",0.25 to 0.4 mL/min/kg
same,Proportion of children failing to achieve the target C min,"[4]; previous clinical studies, ref Sanchez et al., 1999, Strenger et al., 2013, Zhao et al., 2015",48–89%
same,CL in children,"[4]; ref Aarons et al., 1998, Lukas et al., 2004, Ramos-Martin et al., 2014, Reed et al., 1997, Sanchez et al., 1999, Terragna et al., 1988, Zhao et al., 2015",0.25 to 1.23 mL/min/kg
same,Overall mean C min,"[4]; ref Lukas et al., 2004",9000 ng/mL
same,Vd,"[4]; ref Ramos-Martin et al., 2014",0.2 L/kg
same,C min achieved with current maintenance doses in another study,"[4]; ref Sanchez et al., 1999",4800 to 5900 ng/mL
same,CL,"[4]; two studies in patients admitted to the PICU, ref Reed et al., 1997, Sanchez et al., 1999",0.75 mL/min/kg and 0.5 mL/min/kg
same,Bound to albumin in plasma,albumin,> 90%
same,Hydrophilicity of the marketed drug,[5],hydrophilic
same,"Vd, mean of 1,000 bootstrap replicates",[6]; bootstrap,1.77 L
same,"CL, mean of 1,000 bootstrap replicates",[6]; bootstrap success rate 96.5%,0.0718 L/h
same,"Vd, final model estimate","[6]; population PK, one-compartment, Vd=1.39×θ3(WT/16.71)",1.39 L
same,Estimate of Vd per kg,[6]; this study,0.15 L/kg
same,Typical population value of CL per kg,[6]; this study,0.233 mL/min/kg
same,"Teicoplanin concentration, mean ± standard deviation","[7]; Hospital 1, n=13, 21 samplings",9.3 ± 10.1 mg/L
same,"Teicoplanin concentration, mean ± standard deviation","[7]; Hospital 2, n=212, 304 samplings",9.1 ± 8.9 mg/L
same,"Teicoplanin concentration, mean ± standard deviation","[7]; model evaluation data, n = 66, 89 samplings",9.6 ± 5.6 mg/L
same,"Teicoplanin concentration, mean ± standard deviation","[7]; model-building data, n = 159, 236 samplings, HPLC, LLOQ 2.5 mg/L",8.6 ± 12.1 mg/L
